Assay results taken from the NIST ThermoML archive (doi:10.1016/j.fluid.2009.05.007).
Numbers after ± are expanded uncertainties.

Assay: activity coefficient (dimensionless); of the first substance listed, at infinite dilution; xn = mol fraction of the nth substance listed
Details: 101 kPa, Liquid, dilutor technique, x1 = 0

Compound: CCCCCCCCC [nonane] + CCCCCCn1cc[n+](C)c1.F[B-](F)(F)F
- activity coefficient (318.21 K): 88 ± 4.4
- activity coefficient (328.16 K): 81.2 ± 4.1
- activity coefficient (338.14 K): 76.7 ± 3.8
- activity coefficient (348.16 K): 72.9 ± 3.6

Compound: C=CCCCC [hex-1-ene] + CCCCn1cc[n+](C)c1.F[B-](F)(F)F
- activity coefficient (323.16 K): 30.1 ± 1.5
- activity coefficient (333.15 K): 27.8 ± 1.4
- activity coefficient (343.22 K): 25.7 ± 1.3
- activity coefficient (353.14 K): 23.9 ± 1.2

Compound: CCCCCCCCC [nonane] + CCCCn1cc[n+](C)c1.F[B-](F)(F)F
- activity coefficient (323.12 K): 334 ± 17
- activity coefficient (343.21 K): 270 ± 14
- activity coefficient (353.16 K): 225 ± 11

Compound: CCCCCCCCCC [decane] + CCCCCCn1cc[n+](C)c1.F[B-](F)(F)F
- activity coefficient (318.21 K): 129 ± 6.4
- activity coefficient (328.16 K): 115 ± 5.8
- activity coefficient (338.14 K): 110 ± 5.5
- activity coefficient (348.16 K): 104 ± 5.2

Compound: C=CCCCCCC [oct-1-ene] + CCCCCCn1cc[n+](C)c1.F[B-](F)(F)F
- activity coefficient (318.11 K): 29.4 ± 1.5
- activity coefficient (328.19 K): 28.1 ± 1.4
- activity coefficient (338.14 K): 27.2 ± 1.4
- activity coefficient (348.11 K): 25.8 ± 1.3

Compound: C=CCCCCC [1-heptene] + CCCCCCn1cc[n+](C)c1.F[B-](F)(F)F
- activity coefficient (318.11 K): 19.6 ± 0.98
- activity coefficient (328.19 K): 19.3 ± 0.97
- activity coefficient (338.14 K): 18.8 ± 0.94
- activity coefficient (348.11 K): 18 ± 0.9

Compound: CCCCCCCC [octane] + CCCCn1cc[n+](C)c1.F[B-](F)(F)F
- activity coefficient (323.16 K): 170 ± 8.5
- activity coefficient (328.16 K): 160 ± 8
- activity coefficient (333.14 K): 155 ± 7.7
- activity coefficient (338.14 K): 146 ± 7.3
- activity coefficient (343.22 K): 143 ± 7.1

Compound: C=CCCCCCC [oct-1-ene] + CCCCn1cc[n+](C)c1.F[B-](F)(F)F
- activity coefficient (323.16 K): 88.6 ± 4.4
- activity coefficient (333.24 K): 84.8 ± 4.2
- activity coefficient (343.15 K): 78.8 ± 3.9
- activity coefficient (353.23 K): 74.2 ± 3.7

Compound: CCCCCCC [heptane] + CCCCn1cc[n+](C)c1.F[B-](F)(F)F
- activity coefficient (323.16 K): 95.8 ± 4.8
- activity coefficient (328.16 K): 89 ± 4.5
- activity coefficient (333.14 K): 83.8 ± 4.2
- activity coefficient (338.14 K): 80.1 ± 4
- activity coefficient (343.22 K): 75.3 ± 3.8

Compound: C=CCCCCC [1-heptene] + CCCCn1cc[n+](C)c1.F[B-](F)(F)F
- activity coefficient (323.16 K): 52 ± 2.6
- activity coefficient (333.24 K): 50.3 ± 2.5
- activity coefficient (343.15 K): 46.6 ± 2.3
- activity coefficient (353.23 K): 43.2 ± 2.2

Compound: C=CCCCC [hex-1-ene] + CCCCCCn1cc[n+](C)c1.F[B-](F)(F)F
- activity coefficient (318.11 K): 13 ± 0.65
- activity coefficient (328.19 K): 12.1 ± 0.61
- activity coefficient (338.17 K): 11.9 ± 0.6
- activity coefficient (348.15 K): 11.4 ± 0.57

Compound: CCCCCCCCCC [decane] + CCCCn1cc[n+](C)c1.F[B-](F)(F)F
- activity coefficient (323.12 K): 620 ± 31
- activity coefficient (343.21 K): 443 ± 22
- activity coefficient (353.16 K): 383 ± 19

Compound: CCCCCC [hexane] + CCCCn1cc[n+](C)c1.F[B-](F)(F)F
- activity coefficient (323.15 K): 66.7 ± 3.3
- activity coefficient (328.18 K): 63.3 ± 3.2
- activity coefficient (333.2 K): 61 ± 3
- activity coefficient (343.26 K): 54.9 ± 2.8

Compound: C=CCCCCCCCC [1-decene] + CCCCn1cc[n+](C)c1.F[B-](F)(F)F
- activity coefficient (323.16 K): 224 ± 11
- activity coefficient (333.17 K): 207 ± 10
- activity coefficient (343.17 K): 190 ± 9.5
- activity coefficient (353.16 K): 180 ± 9

Compound: CCCCCCC [heptane] + CCCCCCn1cc[n+](C)c1.F[B-](F)(F)F
- activity coefficient (303.16 K): 45 ± 2.2
- activity coefficient (318.14 K): 42 ± 2.1
- activity coefficient (323.27 K): 41.1 ± 2
- activity coefficient (333.11 K): 38.9 ± 1.9
- activity coefficient (343.09 K): 36.8 ± 1.8

Compound: CCCCCCCC [octane] + CCCCCCn1cc[n+](C)c1.F[B-](F)(F)F
- activity coefficient (303.16 K): 69.6 ± 3.5
- activity coefficient (318.14 K): 62.3 ± 3.1
- activity coefficient (323.27 K): 59.5 ± 3
- activity coefficient (333.11 K): 56 ± 2.8
- activity coefficient (343.09 K): 52.5 ± 2.6

Compound: C=CCCCCCCCC [1-decene] + CCCCCCn1cc[n+](C)c1.F[B-](F)(F)F
- activity coefficient (318.2 K): 54.6 ± 2.7
- activity coefficient (328.16 K): 48.7 ± 2.4
- activity coefficient (338.17 K): 46 ± 2.3
